Columns and labels:
Type in all cases: cell-based, mouse
ieCPCs = assay: Cardiac (CM) differentiation of ieCPCs, cTnT expression; settings: 20 ng/ml BMP4 or 5 μM IWP2 versus basal differentiation medium
Experimental: For cardiac differentiation, ieCPCs were passaged onto 96-well matrigel-coated plates at a density of […] cells/cm^2 and cultured in serum-free differentiation (SFD) medium for 10 days. IWP2 (5 μM) was added to SFD medium during the first six days to increase the yield of cardiomyocytes (CMs) in the functional characterization assays.
Differentiation efficiency of each cell type was calculated with qPCR, flow cytometry, and/or an In Cell Analyzer 2000 (General Electric Healthcare).
After washing cells three times with PBS, the cells were incubated with isotype-matched Alexa Fluorescence-conjugated secondary antibodies (Invitrogen) for 1 hour at room temperature. […] The expression of cTnT (measured by multiplying staining intensity and area) and Isl1 or α-SMA (percentage in total cells) were monitored and analyzed by an IN Cell Analyzer 2000.
To detect intracellular antigens, dissociated cells were fixed and permeabilized with a BD Cytofix/Cytoperm™ Fixation/Permeabilization Kit (BD Biosciences), and then incubated with antibodies for cTnT (MS-295-P1 Thermo Scientific; 1:200) and α-SMA (A-2547, Sigma-Aldrich; 1:200) at 4° C. overnight. After three washes, cells were incubated with isotype-matched Alexa Fluorescence-conjugated secondary antibodies (Invitrogen) for 1 hour at room temperature and detected by an LSR II Flow Cytometer (BD Biosciences).

ieCPC-CMs = assay: Beating frequency and Ca2+ transients in ieCPC-CMs, pharmacological studies
Experimental: Contracting cardiomyocytes derived from ieCPCs (ieCPC-CMs) were dispersed by first treating cells with Collagenase B for 5-10 min and then with Accutase for 5 min. Dissociated cells were replated onto matrigel-coated coverslips (Warner Instruments). After visible beating was reconfirmed, the coverslips were loaded with the Ca^2+-sensitive fluorescent indicator Fluo-4 (see below), and then placed in a superfusion bath (Warner Instruments) on a Nikon TiS inverted microscope equipped with a microfluorometer (lonOptix). Superfusion solutions were warmed to 30° C. with a superfusion system and heated perfusion pencil (ValveLink, AutoMate Scientific).
The ieCPC-CMs on coverslips were loaded with Fluo-4 AM in a 1:10 mixture of the indicator dissolved in dry dimethyl sulfoxide at 5 mM, plus Powerload concentrate (Life Technologies). This mixture was diluted 100-fold into extracellular Tyrode's solution and substituted for culture medium in dishes containing coverslips (final indicator concentration, 5 μM). […] Fluo-4 fluorescence transients were recorded with a standard filter set with excitation and emission centered on 480 nm and 535 nm, respectively (Chroma Technology).
Fluorescence was obtained from contracting cells plus a cell-free border using a cell-framing adaptor (IonOptix). Background fluorescence, recorded after removing the cell(s) from the field of view, was subtracted from all recordings. […] Background-corrected fluorescence transients were expressed relative to the diastolic fluorescence between spontaneous APs and were considered to reflect underlying changes in intracellular Ca^2+ concentration. Unless stated, reagents were from Sigma Chem. Co. Pharmacological studies were conducted on the spontaneous fluorescence transients of non-patch-clamped myocytes, and, to maximize coverslip usage, pharmacological agents were applied locally (only to the cell or cluster of interest) with the perfusion pencil.

ieCPC-SMCs = assay: Contractile assay of smooth muscle cells in vitro; settings: 100 μM carbachol; seen in primary SMCs, not in undifferentiated ieCPCs
Experimental: ieCPCs, ieCPC-SMCs, and primary SMCs were treated with carbachol (100 μM, Sigma-Aldrich) and monitored with a Zeiss Axio Observer microscope in a time-lapse manner at 10-minute intervals for 1 hour. Cell-surface areas were then calculated with ImageJ software.

Flk-1^+/PdgfR-α^+ cells = assay: Flow cytometry of Flk-1+/PdgfR-α+ cells during CASD cardiac reprogramming of 2nd MEFs treated with BACS; settings: NU6140 4 μM along with BACS from day 8; day 14
Experimental: A Cell-Activation and Signaling-Directed (CASD) system-based cardiac reprogramming was conducted using methods described by Efe et al. (2011). Briefly, 2nd MEFs at passage 3 were seeded onto geltrex (Gibco)-coated plates at a density of 2.5×10^4 cells/well of a 12-well plate in MEF medium (day −2). Doxycycline (DOX; 2 μg/ml, Sigma-Aldrich) was added into the medium one day later (day −1) and the cells were cultured for another day. Medium was then changed to reprogramming medium (knockout DMEM supplemented with 5% knockout serum replacement (KSR), 15% embryonic stem cell (ESC)-qualified FBS, 1× Glutamax, 1×NEAA, 0.1 mM β-mercaptoethanol (β-ME), 1% ESC-qualified nucleosides (Millipore), 0.5 μM Jak inhibitor 1 (JI1; Millipore), and 2 μg/ml DOX) at day 0. This medium was renewed every 2 days. […]
On day 8, the medium was switched to ieCPC basal medium (Advanced DMEM/F12: Neural basal (1:1) supplemented with 1×N2, 1×B27 without Vitamin A, 1× Glutamax, 1×NEAA, 0.05% bovine serum albumin (BSA), and 0.1 mM β-ME) supplemented with BACS (5 ng/ml BMP4, 10 ng/ml Activin A, 3 μM CHIR99021, and 2 μM SU5402 (Tocris Bioscience)). JI1 (0.5 μM) was included to suppress the establishment of pluripotency until the cells were ready for purification at day 13. […]

**Q.** How did the “cardiac differentiation of ieCPCs (cTnT)” value (ieCPCs) turn out when `Cc1ccc2nc(NC(=O)CSc3nc4c(c(=O)n3-c3ccccc3)SCC4)sc2c1` [IWP2] was run?
**A.** dramatically enhanced

**Q.** Which “frequency of cell contraction and spontaneous Ca2+ transients” value (ieCPC-CMs; 1 μM isoproterenol) does the source give for `CC(C)NCC(O)c1ccc(O)c(O)c1` (stereo not shown) [isoproterenol] here?
**A.** significantly increased

**Q.** Which “effect on the isoproterenol-induced increase of frequency” value (ieCPC-CMs; 10 μM carbachol) does the source give for `C[N+](C)(C)CCOC(N)=O` [carbachol] here?
**A.** blocked

**Q.** And the “contraction of ieCPC-SMCs” value (ieCPC-SMCs)?
**A.** induced contraction

**Q.** Which “Ca2+ transients (release from sarcoplasmic reticulum)” value (ieCPC-CMs; 10 mM caffeine) does the source give for `Cn1c(=O)c2c(ncn2C)n(C)c1=O` [caffeine] here?
**A.** elicited large Ca^2+ transients

**Q.** Which “ratio of Flk-1+/PdgfR-α+ cells” value (Flk-1^+/PdgfR-α^+ cells) does the source give for `CCN(CC)C(=O)c1ccc(Nc2nc(OCC3CCCCC3)c3[nH]cnc3n2)cc1` [NU6140] here?
**A.** dramatically decreased

B1: BMP4: member of the group of bone morphogenic proteins and a ventral mesoderm inducer (protein, UniProt P12644 293-408, looked up)
Bone morphogenetic protein 4: SPKHHSQRARKKNKNCRRHSLYVDFSDVGWNDWIVAPPGYQAFYCHGDCPFPLADHLNSTNHAIVQTLVNSVNSSIPKACCVPTELSAISMLYLDEYDKVVLKNYQEMVVEGCGCR
**Q.** Which “cardiac differentiation of ieCPCs (cTnT)” value (ieCPCs) does the source give for B1 here?
**A.** significantly impaired

Reference: patent US20190017029A1, “Generation of Expandable Cardiovascular Progenitor Cells” (The J. David Gladstone Institutes, a testament trust …, priority 2016, published 2019)
